US20230295292A1, “METHODS OF TREATING CANCERS AND ENHANCING EFFICACY OF GPRC5DXCD3 BISPECIFIC ANTIBODIES” (Janssen Biotech, Inc., priority 2021, published 2023)

How the values were obtained:
T cells = assay: Phase 1b TRIMM-2 study: biomarker / pharmacodynamic assessments (T cells, cytokines); assay type: in vivo, human
Excerpt: BM-localized MM cells were identified and analysed for cell surface marker expression levels by staining 1.0×10^6 cells/mL with HuMax-003 (CD38) FITC (this antibody binds to an epitope distinct from the epitope bound by daratumumab, Janssen Pharmaceuticals), CD138 PE, CD56 PC7, CD45 Krome Orange (all Beckman Coulter), CD269 (BCMA) APC (Biolegend), CD274 (PD-L1) BV421 and CD19 APC-H7 (both Becton Dickinson). BM or PB immune cell subsets were identified and analysed for cell surface marker expression levels by staining 1.0×10^6 cells/mL with CD45 Krome Orange, CD56 PC7 (both Beckman Coulter), CD14 APC-H7, CD19 APC-H7, CD3 V450, CD4 APC-H7 or PE, CD8 FITC, CD45-RA APC. CD127 PE.Cy7, CD62L PE, CD274 […] BV421, CD16 APC, HLA-DR APC-H7 (all Becton Dickinson) and CD25 PE (Dako) or with CD4 BUV395 (BD Biosciences), CD8 BUV737 (BD
Biosciences), PD-1 BV421 (BD Biosciences), TIM-3 BV650 (BD Biosciences), CD3 BV711 (BD Biosciences), CD45RO BV786 (BD Biosciences). CD38 Humab-003-FITC (Janssen). CD45RA PerCP-Cy5.5 (BD Biosciences). HLA-DR PE (BD Biosciences), LAG-3 PE-eF610 (ThermoFisher), CD25 PE-Cy7 (BD Biosciences), CCR7 AF647 (BD Biosciences), CD127 APC-eF780 (ThermoFisher). All BM samples were analysed within 24 hours from the time the sample was collected.
Flow cytometry was performed using a 7-laser LSRFORTESSA (Becton Dickinson). Fluorescent labeled beads (CS&T beads, Becton Dickinson) were used daily to monitor the performance of the flow cytometer and verify optical path and stream flow. […] Compensation beads were used to determine spectral overlap, and compensation was automatically calculated using Diva software. Flow cytometry data were analyzed using FACS Diva software.
Cytokines [interferon-gamma (IFN-γ), interleukin (IL)-2, IL-6, IL-8, IL-10, and tumor necrosis factor-alpha (TNF-α)] in the cell culture supernatants were analyzed using V-Plex proinflammatory Panel 1 Human Kit (Meso Scale Diagnostics), according to the manufacturer’s protocol. […]

[1] = tested on: relapsed or refractory multiple myeloma; assay: Phase 1b TRIMM-2 study: best response by IMWG criteria, investigator assessment
Method: A phase 1b, open-label, multicenter, multi-cohort study of talquetamab in combination with subcutaneous (SC) dosing regimens of daratumumab administered to adult subjects with multiple myeloma was carried out. Two treatment combinations also included pomalidomide (and concomitant dexamethasone for at least the initial cycles). In the pomalidomide-containing treatment combinations, dexamethasone administration was required through the first 3 full immunomodulatory agent (IMiD)containing cycles to enhance IMiD-driven antimyeloma effects and serve as pretreatment medication for daratumumab and talquetamab. An overall aim of the study was to evaluate the safety of daratumumab in combination with talquetamab with or without pomalidomide (and concomitant dexamethasone at least in the initial cycles), and to evaluate preliminary antitumor activity. Safety was monitored by a Study Evaluation Team (SET).
The treatments were administered in 28-day cycles. Daratumumab was administered to all subjects by SC injection at a dose of 1800 mg as follows: weekly in Cycles 1-2, every 2 weeks (Q2W) in Cycles 3-6, and every 4 weeks thereafter. Note that a recombinant human hyaluronidase PH20 (rHuPH20) was used to decrease the injection volume required, facilitating the SC administration of daratumumab.
Daratumumab SC (Dara) was administered in combination with different dosage levels of talquetamab (Tal), including Dara 1800 mg + Tal 60 µg/kg SC weekly, Dara 1800 mg + Tal 400 µg/kg SC weekly. Dara 1800 mg + Tal 400 µg/kg SC biweekly starting Cycle 3 Day 1 (Tal 400 µg/kg SC weekly in Cycles 1-2), and Dara 1800 mg + Tal 800 µg/kg SC biweekly. Some subjects in the Dara 1800 mg + Tal 400 µg/kg SC weekly cohort switched to Tal 800 µg/kg biweekly SC dosing after Cycle 3 Day 1. Except for the 60 µg/kg talquetamab SC weekly cohort in which step-up dosing began on Cycle 1 Day 9, step-up doses for talquetamab began on Cycle 1 Day 2. When daratumumab and talquetamab were administered on the same day, daratumumab was administered first. Step-up Dose 1 of talquetamab was administered at least 20 hours after SC daratumumab. Subsequent step-up dose(s), if applicable, and first treatment dose of talquetamab were administered approximately 3 hours after SC daratumumab. Subsequent treatment doses of talquetamab was administered approximately 1 hour after SC daratumumab (when both study drugs are administered on the same day).
Disease evaluations would be performed by a central laboratory (additional samples may be collected for analysis by the local laboratory) until disease progression. […] Subjects that meet all other IMWG criteria for CR, and whose positive IFE is confirmed to be daratumumab interference, are considered complete responders. For subjects with light chain multiple myeloma, both serum and urine IFE and serum FLC assay were performed every 4 weeks. Additional serum samples may be utilized to monitor for potential daratumumab interference with the IFE and response adjudicated per IMWG-based response criteria. Quantitative immunoglobulin (QIg, e.g., IgG, IgA, IgM, IgE, and IgD), M-protein by electrophoresis (SPEP), FLC and IFE measurements in serum and urine and serum β-microglobulin were analyzed by the central laboratory. Disease progression based on one of the laboratory tests alone must be confirmed by at least 1 repeat investigation performed 1 to 3 weeks later. Disease evaluations would continue beyond relapse from CR until disease progression was confirmed. Serum and urine IFE and serum FLC assays would be performed at screening and thereafter when a CR or sCR is suspected (when serum or 24-hour urine M-protein electrophoresis [by SPEP or UPEP] are 0 or non-quantifiable). Development of hypercalcemia (corrected serum calcium >11 mg/dL) may indicate disease progression or relapse if it is not attributable to any other cause.

[2] = Phase 1b TRIMM-2 study: pharmacokinetics (serum concentrations); assay type: in vivo, human; conditions: in the presence of daratumumab
Method: Blood and serum or plasma samples were collected for assessments of pharmacokinetics and immunogenicity (e.g., antibodies to daratumumab, rHuPH20, or talquetamab). Selection of the dose regimen (dose level and frequency) for dose expansion was determined based on the pharmacokinetic and pharmacodynamic information obtained during dose escalation. A sample for the pharmacokinetic and immunogenicity analysis was collected at scheduled time and any time a suspected IRR or CRS event (in case of a CRS event, samples were collected at onset, 24 hours and 72 hours) was observed during the study.
Each serum sample was evenly divided into 3 aliquots (1 for pharmacokinetics and immunogenicity of daratumumab, 1 for pharmacokinetics and immunogenicity of talquetamab, and 1 backup). […] For the pharmacokinetics analysis, serum samples were analyzed to determine concentrations of daratumumab and talquetamab using validated, specific, and sensitive assay methods. Pharmacokinetic parameters include, but are not limited to, area under the curve (AUC)(0-t), AUCtau, Cmax, and Tmax would be calculated if sufficient data were available for estimation. […] For the rHuPH20 immunogenicity assessments, plasma samples were screened for antibodies binding to rHuPH20 and were assessed in confirmatory and titer assays as necessary.

[3] = Tal 400 µg/kg (SC3 and SC6) + 800 µg/kg (SC7 and SC15) with Dara 1800 mg, 56 response evaluable subjects
[4] = Tal Total (all Tal cohorts with Dara, with or without Pom), n=108 evaluable

Substance: daratumumab: anti-CD38 monoclonal antibody approved for MM treatment; HC SEQ ID NO: 13, LC SEQ ID NO: 14; given SC with rHuPH20 [reference compound]
- Proportion of CD38+/CD8+ T cells (T cells; after initial daratumumab dosing on C1D1): declined

Substance: talquetamab
- Frequency of CD38+ T cells (T cells; FIG. 4, following talquetamab dosing in the presence of daratumumab 1800 mg): increase
- CD38+ CD8+ T cells (T cells; after the initial doses of talquetamab despite concurrent daratumumab dosing): induction
- CR or better (sCR + CR) ([1]; Overall Total, n=186 evaluable): 46 (24.7%)
- Clinical benefit (Overall response + MR) ([1]; Overall Total, n=186 evaluable): 146 (78.5%)
- Complete response (CR) ([1]; Overall Total, n=186 evaluable): 28 (15.1%)
- Minimal response (MR) ([1]; Overall Total, n=186 evaluable): 0
- Not evaluable (NE) ([1]; Overall Total, n=186 evaluable): 1 (1.2%)
- Overall response (sCR+CR+VGPR+PR) ([1]; Overall Total, n=186 evaluable): 146 (78.5%)
- Partial response (PR) ([1]; Overall Total, n=186 evaluable): 22 (11.8%)
- Progressive disease (PD) ([1]; Overall Total, n=186 evaluable): 11 (5.9%)
- Stringent complete response (sCR) ([1]; Overall Total, n=186 evaluable): 18 (9.7%)
- VGPR or better (sCR + CR + VGPR) ([1]; Overall Total, n=186 evaluable): 124 (66.7%)
- Very good partial response (VGPR) ([1]; Overall Total, n=186 evaluable): 78 (41.9%)
- Very good partial response (VGPR), Unconfirmed ([1]; Overall Total, n=186 evaluable): 11
- CR or better (sCR + CR) [1, 3]: 16 (28.6%)
- Clinical benefit (Overall response + MR) [1, 3]: 45 (80.4%)
- Complete response (CR) [1, 3]: 9 (16.1%)
- Complete response (CR), Unconfirmed [1, 3]: 3
- Minimal response (MR) [1, 3]: 0
- Not evaluable (NE) [1, 3]: 0
- Overall response (sCR+CR+VGPR+PR) [1, 3]: 45 (80.4%)
- Partial response (PR) [1, 3]: 9 (16.1%)
- Partial response (PR), Unconfirmed [1, 3]: 4
- Progressive disease (PD) [1, 3]: 3 (5.4%)
- Stringent complete response (sCR) [1, 3]: 7 (12.5%)
- Stringent complete response (sCR), Unconfirmed [1, 3]: 0
- VGPR or better (sCR + CR + VGPR) [1, 3]: 36 (64.3%)
- Very good partial response (VGPR) [1, 3]: 20 (35.7%)
- Very good partial response (VGPR), Unconfirmed [1, 3]: 5
- CR or better (sCR + CR) [1, 4]: 28 (25.9%)
- Clinical benefit (Overall response + MR) [1, 4]: 89 (82.4%)
- Complete response (CR) [1, 4]: 14 (13.0%)
- Minimal response (MR) [1, 4]: 0
- Not evaluable (NE) [1, 4]: 0
- Overall response (sCR+CR+VGPR+PR) [1, 4]: 89 (82.4%)
- Partial response (PR) [1, 4]: 18 (16.7%)
- Progressive disease (PD) [1, 4]: 4 (3.7%)
- Stringent complete response (sCR) [1, 4]: 14 (13.0%)
- VGPR or better (sCR + CR + VGPR) [1, 4]: 71 (65.7%)
- Very good partial response (VGPR) [1, 4]: 43 (39.8%)
- Very good partial response (VGPR), Unconfirmed [1, 4]: 13
- Pharmacokinetic profile of talquetamab [2]: consistent with the profile of observed in the phase 1 talquetamab monotherapy
